Test results from article PMC8560925, “Inhibition of Clostridium difficile TcdA and TcdB toxins with transition state analogues” (Nature Communications, 2021).
Where “and” joins values, the source holds several entries; their conditions need not be identical. Equal entries are not always repeated. Structures can show the parent of a compound that is named as a salt. Where two headings read alike, the source gives them in different places.

Key:
[1] = target: T1, TcdB-GTD (Clostridioides difficile, UniProt P18177); experiment: biochemical; assay type: biochemical, Clostridium difficile
T1 construct: C-terminal His-6 tagged TcdB-GTD (amino acids 1-546); His6 (C); made in house; host or cells: Escherichia coli One Shot BL21 Star (DE3)

[2] = test system: TcdB-GTD; conditions: cited from earlier work
[3] = test system: C. sordelli lethal toxin; conditions: cited from earlier work
[4] = target: T1, TcdB-GTD; experiment: biochemical; set-up: species or system Clostridium difficile
[5] = target: T2, TcdB-GTD in the presence of UDP (Clostridioides difficile, UniProt P18177); experiment: biochemical; assay type: binding, Clostridium difficile; conditions: for Kd: ITC, 1 mM UDP
T2 construct: C-terminal His-6 tagged TcdB-GTD (amino acids 1-546); His6 (C); made in house; host or cells: Escherichia coli One Shot BL21 Star (DE3)

[6] = test system: TcdA-induced apoptosis of HT-29 cells; assay type: cell-based
[7] = test system: Rac1 glucosylation by TcdA in IMR90 cells; experiment: Western blot analysis of Rac1 glucosylation in IMR90 cells, TcdA; assay type: cell-based, human; conditions: 12.5–100 µM iminosugar, 1 nM TcdA, 6 h
Procedure: (§1) IMR90 cells were grown in EMEM with 10% FBS in 24-well plates inoculated at 50,000 cells/well. […] Next, TcdA (1 nM final) or TcdB (0.1 nM final) was added to each well and cells were incubated at 37 °C, 5% CO2 for 6 h. The cells were lysed with mammalian cell lysis buffer (Abcam) according to manufacturer’s instructions. Cell lysates (2 µg) were heated at 95 °C in XT-loading dye (Bio-rad) before being loaded on an SDS polyacrylamide gel. Following electrophoresis, samples were transferred to PVDF membrane using an iblot2 device (ThermoFisher), blocked with 1% milk in PBS 0.1% Tween 20 for 1 h at room temperature and probed with a 1/4000 dilution of anti-Rac1 (Mab102, Thermo Fisher) and 1/8000 of anti-GAPDH antibody (Abcam) for 1 h at room temperature. Following incubation with the primary antibody, the membrane was washed 3 times with PBS with 0.1% Tween20 and incubated with a 1/40,000 dilution of secondary antibody for 1 h. Following incubation with the secondary antibody, the membrane was washed 3 times in PBS 0.1% tween 20 before a final wash in PBS. […]

[8] = test system: TcdA-induced cell rounding of IMR90 cells; assay type: cell-based, human
[9] = test system: cell lines; experiment: Cell toxicity of the iminosugars in the cell lines used; assay type: cell-based; conditions: high treatment concentrations
[10] = test system: Rac1 glucosylation by TcdB in IMR90 cells; experiment: Western blot analysis of Rac1 glucosylation in IMR90 cells, TcdB; assay type: cell-based, human; conditions: 12.5–100 µM iminosugar, 0.1 nM TcdB, 6 h
Procedure: as §1

[11] = test system: TcdB-induced cell rounding of Vero cells; experiment: cells; assay type: cell-based; conditions: Chlorocebus sabaeus, 1.5 h, read-out: Calculated IC50 cell rounding
[12] = test system: TcdA-induced cell rounding of Vero cells; experiment: cells; assay type: cell-based; conditions: Chlorocebus sabaeus, 2 h, read-out: Calculated IC50 cell rounding
[13] = target: T1, TcdB-GTD; assay type: binding, Clostridium difficile
[14] = target: T3, TcdA-GTD (Clostridioides difficile, UniProt P16154); experiment: biochemical; assay type: biochemical, Clostridium difficile
T3 construct: TcdA-GTD (amino acids 1–542); His6 (C); made in house; host or cells: E. coli One shot BL21 Star (DE3)

[15] = test system: TcdB-induced cell rounding of IMR90 cells; assay type: cell-based, human
[16] = set-up: method as in Khanna et al, FEBS journal, 2010, vol 277, p 1618; conditions: after administration; ref Khanna et al, FEBS journal, 2010, vol 277, p 1618; cited from earlier work
[17] = test system: Gaucher disease patients; set-up: method as in NCTs: 00433147; 00446550; 00813865; 00875160; conditions: ref NCTs: 00433147, 00446550, 00813865, 00875160, cited from earlier work
[18] = Ki TcdB-GTD glucosyltransferase activity
[19] = Ki TcdB-GTD glucohydrolase activity
[20] = Ki TcdB-GTD glucosyltransferase activity, fixed concentration of UDP at 2 x Ki UDP
[21] = Ki TcdA-GTD glucosyltransferase activity
[22] = Ki TcdA-GTD glucosyltransferase activity, fixed concentration of UDP at 2 x Ki UDP

T2 sequence (P18177 1-546 limits assumed): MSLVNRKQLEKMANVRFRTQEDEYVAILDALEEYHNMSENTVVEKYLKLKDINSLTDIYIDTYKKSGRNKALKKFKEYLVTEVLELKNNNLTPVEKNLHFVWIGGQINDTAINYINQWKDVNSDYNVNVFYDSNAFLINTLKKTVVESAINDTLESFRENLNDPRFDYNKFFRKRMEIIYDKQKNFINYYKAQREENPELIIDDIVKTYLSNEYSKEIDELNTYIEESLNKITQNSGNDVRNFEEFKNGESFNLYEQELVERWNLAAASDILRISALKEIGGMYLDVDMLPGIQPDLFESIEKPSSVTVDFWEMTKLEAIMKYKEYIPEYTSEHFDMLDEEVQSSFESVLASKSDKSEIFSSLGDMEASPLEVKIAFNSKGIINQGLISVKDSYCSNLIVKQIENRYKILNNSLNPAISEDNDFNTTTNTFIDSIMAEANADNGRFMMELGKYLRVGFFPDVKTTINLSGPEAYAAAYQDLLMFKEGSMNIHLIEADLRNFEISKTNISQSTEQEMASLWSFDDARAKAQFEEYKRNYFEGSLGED
T1 sequence (P18177 1-546 limits assumed): as above
T3 sequence (P16154 1-542): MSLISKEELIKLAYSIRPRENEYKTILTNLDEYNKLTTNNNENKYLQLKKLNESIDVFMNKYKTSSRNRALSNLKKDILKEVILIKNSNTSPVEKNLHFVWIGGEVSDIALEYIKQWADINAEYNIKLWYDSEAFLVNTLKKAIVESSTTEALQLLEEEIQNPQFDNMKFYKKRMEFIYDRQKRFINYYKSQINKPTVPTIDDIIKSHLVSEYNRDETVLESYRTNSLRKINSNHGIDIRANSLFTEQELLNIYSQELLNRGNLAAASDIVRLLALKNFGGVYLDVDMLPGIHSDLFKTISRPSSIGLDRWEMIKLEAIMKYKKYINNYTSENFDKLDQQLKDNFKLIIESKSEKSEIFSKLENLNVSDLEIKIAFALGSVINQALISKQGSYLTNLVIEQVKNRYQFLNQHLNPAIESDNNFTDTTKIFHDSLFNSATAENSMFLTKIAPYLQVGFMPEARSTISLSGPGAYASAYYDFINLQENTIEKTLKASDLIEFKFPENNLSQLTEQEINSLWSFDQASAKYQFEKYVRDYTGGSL

OC[C@H]1OC(O)[C@H](O)[C@@H](O)[C@@H]1O (stereo partly shown) [Glucose]
Inhibition [1]: no significant inhibition
Inhibition of TcdB-GTD ([2]; ref 42 (numbering of the author response)): no significant inhibition

O[C@H]1[C@H](O)[C@@H](O)CN2CC[C@H](O)[C@H]12 [Castanospermine]
Ki [1, 18]: 680 ± 20 µM
remaining activity at 1000 µM ([1]; read-out: % enzyme activity): 25.9%
remaining activity at 4000 µM ([1]; read-out: % enzyme activity): 0%
IC50 [2]: ~400 µM
IC50 [3]: ~100 µM
Ki [4, 19]: 3400 ± 200 µM

O[C@H]1[C@H]2[C@H](O)CCCN2C[C@H]1O [Swainsonine]
Ki ([1]; Ki TcdB-GTD GT activity): > 10000 µM
Ki [1, 18]: > 10000 µM
Ki ([4]; Ki TcdB-GTD GH activity): > 10000 µM
Ki [4, 19]: > 10000 µM

O=C1O[C@H](CO)[C@@H](O)[C@H](O)[C@H]1O [Gluconolactone, D-gluconon-1,5-lactone]
Ki [1, 18]: 440 µM
Ki [4, 19]: 414 µM

OC[C@H]1NC[C@H](O)[C@@H](O)[C@@H]1O [Deoxynojirimycin]
Inhibition of TcdB-GTD GT activity [1]: did not inhibit
Ki [1, 18]: > 10000 µM
Inhibition of TcdB-GTD GH activity [4]: did not inhibit
Ki [4, 19]: > 10000 µM

OC[C@H]1CNC(O)[C@@H](O)[C@@H]1O (stereo partly shown) [Noeuromycin]
Mode of inhibition versus UDP-glucose [1]: uncompetitive
fold improvement of inhibitory affinity in the presence of UDP [1]: 4.8 fold
fold less potent than isofagomine [1]: 7.6 fold
Ki [1, 18]: 10.6 ± 1 µM
Ki [1, 20]: 4.4 ± 0.1 µM
ΔH [5]: -5.2 ± 0.1 kcal/mol
−TΔS [5]: 4.2 ± 0.3 kcal/mol
Kd [5]: 0.18 µM
Effect on TcdA-induced apoptosis (Annexin V) [6]: prevented apoptosis
Unglucosylated Rac1 (Mab102) versus total Rac1 [7]: dose-dependent reappearance of unglucosylated Rac1
Effect on toxin-induced cell rounding [8]: prevented
Cell toxicity [9]: no cell toxicity
Unglucosylated Rac1 (Mab102) versus total Rac1 [10]: dose-dependent reappearance of unglucosylated Rac1
IC50 [11]: 13.6 ± 5.6 µM
IC50 [12]: 9.6 ± 3.3 µM
Binding to TcdB-GTD alone (ITC) [13]: no significant binding
fold improvement of inhibition constant for TcdA-GTD relative to TcdB-GTD [14]: 2.3 fold
fold improvement of inhibition constant in the presence of UDP [14]: 23 fold
Ki ([14]; Ki TcdA-GTD GT activity, fixed concentration of UDP at 2 x Ki UDP): 0.21 ± 0.05 µM
Ki [14, 21]: 4.7 ± 0.2 µM
Ki [14, 22]: 0.214 ± 0.055 µM
Effect on toxin-induced cell rounding [15]: prevented
Ki [4, 19]: 12 ± 1.6 µM

OC[C@@H]1[C@@H](O)[C@H](O)[C@H]2[C@@H](O)CCN21 [Australine HCl, australine hydrochloride]
remaining activity at 500 µM ([1]; read-out: % enzyme activity): 73.4%
remaining activity at 1000 µM ([1]; read-out: % enzyme activity): 45.1%
remaining activity at 2000 µM ([1]; read-out: % enzyme activity): 21.8%
remaining activity at 4000 µM ([1]; read-out: % enzyme activity): 0%
remaining activity at […] ([1]; read-out: % enzyme activity): 100%
Ki ([1]; read-out: Ki TcdB-GTD glucosyltransferase activity): 1570 ± 430 µM
Ki ([4]; read-out: Ki TcdB-GTD GH activity, no inhibition): > 10000 µM
Ki ([4]; read-out: Ki TcdB-GTD glucohydrolase activity): > 10000 µM

OC[C@H]1CNC[C@@H](O)[C@@H]1O [Isofagomine]
Mode of inhibition versus UDP-glucose [1]: uncompetitive
fold improvement of inhibitory affinity in the presence of UDP [1]: 2.4 fold
Ki [1, 18]: 1.4 ± 0.1 µM
Ki [1, 20]: 0.29 ± 0.06 µM
remaining activity at 0.015 µM ([1]; read-out: % enzyme activity): 99.7%
remaining activity at 0.061 µM ([1]; read-out: % enzyme activity): 100%
remaining activity at 0.24 µM ([1]; read-out: % enzyme activity): 88.2%
remaining activity at 0.48 µM ([1]; read-out: % enzyme activity): 95.9%
remaining activity at 1.95 µM ([1]; read-out: % enzyme activity): 72%
remaining activity at 3.9 µM ([1]; read-out: % enzyme activity): 37.8%
remaining activity at 3.906 µM ([1]; read-out: % enzyme activity): 15.8%
remaining activity at 7.81 µM ([1]; read-out: % enzyme activity): 19.7%
remaining activity at 15.62 µM ([1]; read-out: % enzyme activity): 8.07%
remaining activity at […] ([1]; read-out: % enzyme activity): 87.8% and 80.5% and 43.4%
Time to maximal levels in plasma, liver, spleen and brain [16]: ≤ 1 h
ΔH [5]: -10.3 ± 0.1 kcal/mol
−TΔS [5]: 0.5 ± 0.2 kcal/mol
Kd [5]: 0.067 µM and 0.0669 µM
Effect on TcdA-induced apoptosis (Annexin V) [6]: prevented apoptosis
Unglucosylated Rac1 (Mab102) versus total Rac1 [7]: dose-dependent reappearance of unglucosylated Rac1
Effect on toxin-induced cell rounding [8]: prevented
Cell toxicity [9]: no cell toxicity
Unglucosylated Rac1 (Mab102) versus total Rac1 [10]: dose-dependent reappearance of unglucosylated Rac1
IC50 [11]: 8.3 ± 3.6 µM
IC50 [12]: 5.5 ± 1.5 µM
Binding to TcdB-GTD alone (ITC) [13]: no significant binding
Mode of inhibition versus UDP-glucose [14]: uncompetitive inhibition
fold improvement of inhibition constant for TcdA-GTD relative to TcdB-GTD [14]: 5.8 fold
fold improvement of inhibition constant in the presence of UDP [14]: 15 fold
Ki [14, 21]: 0.24 ± 0.01 µM
Ki [14, 22]: 0.016 ± 0.002 µM
Effect on toxin-induced cell rounding [15]: prevented
Tolerability of oral doses ([17]; 225 mg/day oral, Gaucher patients): well tolerated
Reduction in Gaucher disease symptoms ([17]; majority of patients): did not show a significant reduction
Ki [4, 19]: 4.8 ± 0.2 µM

O.O=c1ccn([C@@H]2O[C@H](COP(=O)([O-])OP(=O)([O-])O)[C@@H](O)[C@H]2O)c(=O)[nH]1.[Na+].[Na+] [UDP, Uridine 5’diphosphate disodium salt hydrate]
Mode of inhibition versus UDP-glucose [1]: competitive inhibition
remaining activity at 4.84 µM ([1]; read-out: % enzyme activity): 86.1%
remaining activity at 19.37 µM ([1]; read-out: % enzyme activity): 65.3%
remaining activity at 78 µM ([1]; read-out: % enzyme activity): 19.7%
remaining activity at […] ([1]; read-out: % enzyme activity): 99.1%
ΔH [13]: -14.3 ± 3.9 kcal/mol
−TΔS [13]: 8.2 ± 3.8 kcal/mol
